Tests used:
Botrytis cinerea = experiment: Botrytis test (beans)/preventive; format: in vivo; conditions: 48 h, 100 ppm of active ingredient, preventive, size of lesions evaluated 2 days after inoculation, read-out: efficacy
Protocol: Botrytis Test (Beans)/Preventive Solvent: 24.5 parts by weight of acetone • 24.5 parts by weight of dimethylacetamide Emulsifier: 1 part by weight of alkylaryl polyglycol ether To produce a suitable preparation of active compound, 1 part by weight of active compound is mixed with the stated amounts of solvent and emulsifier, and the concentrate is diluted with water to the desired concentration. To test for preventive activity, young plants are sprayed with the preparation of active compound. After the spray coating has dried on, 2 small pieces of agar covered with growth of Botrytis cinerea are placed on each leaf.

[1] = tested on: Fusarium nivale (var. majus); experiment: Fusarium nivale (var. majus)-test (wheat)/preventive; format: in vivo; conditions: Microdochium nivale, 120 h, 500 ppm of active ingredient, preventive, evaluated 5 days after inoculation, read-out: efficacy
Protocol: (§1) Fusarium nivale (Var. Majus)-Test (Wheat)/Preventive Solvent: 49 parts by weight of n,n-dimethylacetamid Emulsifier: 1 part by weight of alkylaryl polyglycol ether To produce a suitable preparation of active compound, 1 part by weight of active compound or active compound combination is mixed with the stated amounts of solvent and emulsifier, and the concentrate is diluted with water to the desired concentration. To test for preventive activity, young plants are sprayed with the preparation of active compound or active compound combination at the stated rate of application. After the spray coating has been dried, the plants are slightly injured by using a sandblast and afterwards they are sprayed with a conidia suspension of Fusarium nivale (var. majus).

Leptosphaeria nodorum = experiment: Leptosphaeria test (wheat)/preventive; format: in vivo; conditions: Parastagonospora nodorum, 500 ppm of active ingredient, preventive, evaluated 7-9 days after inoculation, read-out: efficacy
Protocol: (§2) Leptosphaeria Test (Wheat)/Preventive Solvent: 49 parts by weight of N,N-Dimethylformamide Emulsifier: 1 part by weight of Alkylarylpolyglycolether To produce a suitable preparation of active compound, 1 part by weight of active compound is mixed with the stated amounts of solvent and emulsifier, and the concentrate is diluted with water to the desired concentration. To test for preventive activity, young plants are sprayed with a preparation of active compound at the stated rate of application. One day after this treatment, the plants are inoculated with an aqueous spore suspension of Leptosphaeria nodorum.

Pyrenophora teres = experiment: Pyrenophora test (barley)/preventive; format: in vivo; conditions: 500 ppm of active ingredient, preventive, evaluated 7-9 days after inoculation, read-out: efficacy
Protocol: as §2, with “Pyrenophora Test (Barley)/Preventive” for “Leptosphaeria Test (Wheat)/Preventive”, “Pyrenophora Test (Barley)/Preventive Solvent: 49” for “Leptosphaeria Test (Wheat)/Preventive Solvent: 49”, “sprayed with the preparation of” for “sprayed with a preparation of”, “suspension of Pyrenophora teres.” for “suspension of Leptosphaeria nodorum.”

Pyricularia oryzae = experiment: whole plant or invertebrate; format: in vivo; conditions: 168 h, read-out: efficacy
Puccinia recondita = experiment: Puccinia test (wheat)/preventive; format: in vivo; conditions: 500 ppm of active ingredient, preventive, evaluated 7-9 days after inoculation, read-out: efficacy
Protocol: as §2, with “Puccinia Test (Wheat)/Preventive” for “Leptosphaeria Test (Wheat)/Preventive”, “sprayed with the preparation of” for “sprayed with a preparation of”, “suspension of Puccinia recondita.” for “suspension of Leptosphaeria nodorum.”

Phytophthora infestans = experiment: whole plant or invertebrate; format: in vivo; conditions: 72 h, read-out: efficacy
Alternaria solani = experiment: Alternaria test (tomato)/preventive; format: in vivo; conditions: 168 h, 500 ppm of active ingredient, preventive, evaluated 7 days after inoculation, read-out: efficacy
Protocol: Alternaria Test (Tomato)/Preventive Solvent: 49 parts by weight of N,N-Dimethylformamide Emulsifier: 1 part by weight of Alkylarylpolyglycolether To produce a suitable preparation of active compound, 1 part by weight of active compound is mixed with the stated amounts of solvent and emulsifier, and the concentrate is diluted with water to the desired concentration. To test for preventive activity, young plants are sprayed with the preparation of active compound at the stated rate of application. One day after this treatment, the plants are inoculated with an aqueous spore suspension of Alternaria solani. […] Then the plants are placed in an incubation cabinet at approximately 20° C. and a relative atmospheric humidity of 96%.

Septoria tritici = experiment: Septoria tritici-test (wheat)/preventive; format: in vivo; conditions: 500 ppm of active ingredient, preventive, evaluated 21 days after inoculation
Protocol: as §1, with “Septoria tritici-Test” for “Fusarium nivale (Var. Majus)-Test”, “are” for “are slightly injured by using a sandblast and afterwards they are”, “spore” for “conidia”, “Septoria tritici.” for “Fusarium nivale (var. majus).”

[2] = determination of the log P values by HPLC on a reverse phase column (C18), EEC-Directive 79/831 Annex V.A8; format: physicochemical
In short: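 Log P determined per EEC-Directive 79/831 Annex V.A8 by reverse-phase (C18) HPLC (methods A, B) or UPLC (method C), with mass detection.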

Fusarium graminearum = experiment: whole plant or invertebrate; format: in vivo; conditions: in Hordeum vulgare, 120 h, read-out: efficacy
Sphaerotheca fuliginea = experiment: Sphaerotheca test (cucumber)/preventive; format: in vivo; conditions: Podosphaera fuliginea, 168 h, 500 ppm of active ingredient, preventive, evaluated 7 days after inoculation, 0% = untreated control, 100% = no disease, read-out: efficacy
Protocol: as §2, with “Sphaerotheca Test (Cucumber)/Preventive” for “Leptosphaeria Test (Wheat)/Preventive”, “Sphaerotheca Test (Cucumber)/Preventive Solvent: 49” for “Leptosphaeria Test (Wheat)/Preventive Solvent: 49”, “sprayed with the preparation of” for “sprayed with a preparation of”, “suspension of Sphaerotheca fuliginea.” for “suspension of Leptosphaeria nodorum.”

Plasmopara viticola = experiment: Plasmopara test (grapevines)/preventive; format: in vivo; conditions: 100 ppm of active ingredient, preventive, evaluated 6 days after inoculation
Protocol: Plasmopara Test (Grapevines)/Preventive Solvent: 24.5 parts by weight of acetone • 24.5 parts by weight of dimethylacetamide Emulsifier: 1 part by weight of alkylaryl polyglycol ether To produce a suitable preparation of active compound, 1 part by weight of active compound is mixed with the stated amounts of solvent and emulsifier, and the concentrate is diluted with water to the desired concentration. To test for preventive activity, young plants are sprayed with the preparation of active compound at the stated rate of application. […] The plants are then misted and placed for 1 day in an incubation cabinet.

Venturia inaequalis = experiment: Venturia test (apples)/preventive; format: in vivo; conditions: 100 ppm of active ingredient, preventive, evaluated 10 days after inoculation
Protocol: Venturia Test (Apples)/Preventive Solvent: 24.5 parts by weight of acetone • 24.5 parts by weight of dimethylacetamide Emulsifier: 1 part by weight of alkylaryl polyglycol ether To produce a suitable preparation of active compound, 1 part by weight of active compound is mixed with the stated amounts of solvent and emulsifier, and the concentrate is diluted with water to the desired concentration. To test for preventive activity, young plants are sprayed with the preparation of active compound at the stated rate of application.

SMILES	pest or weed control at 100 ppm (Botrytis cinerea) [%]	pest or weed control at 500 ppm [1] [%]	pest or weed control at 500 ppm (Leptosphaeria nodorum) [%]	pest or weed control at 500 ppm (Pyrenophora teres) [%]	pest or weed control at 500 ppm (Pyricularia oryzae) [%]	pest or weed control at 500 ppm (Puccinia recondita) [%]	pest or weed control at 100 ppm (Phytophthora infestans) [%]	pest or weed control at 500 ppm (Alternaria solani) [%]	efficacy (Septoria tritici) [%]	chromatographic logP [2]	pest or weed control at 500 ppm (Fusarium graminearum) [%]	pest or weed control at 500 ppm (Sphaerotheca fuliginea) [%]	efficacy (Plasmopara viticola) [%]	efficacy (Venturia inaequalis) [%]
CC(=O)N(C(C)=O)c1cc(-c2c(-c3ccc(F)cc3)nn3c2CCCC3)ccn1 [Example 1, N-acetyl-N-{4-[2-(4-fluorophenyl)-4,5,6,7-tetrahydropyrazolo[1,5-a]pyridin-3-yl]pyridin-2-yl}acetamide]	88	100	95	95	80	100	94	100	100	2.42	100	94	75	–
CCC(=O)N(C(C)=O)c1cc(-c2c(-c3ccc(F)cc3)nn3c2CCC3)ccn1 [Example 5, N-acetyl-N-{4-[2-(4-fluorophenyl)-5,6-dihydro-4H-pyrrolo[1,2-b]pyrazol-3-yl]pyridin-2-yl}propanamide]	100	100	95	100	95	100	83	90	86	2.43	92	100	94	99
CCC(=O)N(C(=O)CC)c1cc(-c2c(-c3ccc(F)cc3)nn3c2CCC3)ccn1 [Example 7, N-{4-[2-(4-fluorophenyl)-5,6-dihydro-4H-pyrrolo[1,2-b]pyrazol-3-yl]pyridin-2-yl}-N-propionylpropanamide]	99	100	90	95	70	95	95	90	86	2.81	92	98	100	100
CCC(=O)N(C(C)=O)c1cc(-c2c(-c3ccc(F)cc3)nn3c2CCC3C)ccn1 (stereo not shown) [Example 6, N-acetyl-N-{4-[2-(4-fluorophenyl)-6-methyl-5,6-dihydro-4H-pyrrolo[1,2-b]pyrazol-3-yl]pyridin-2-yl}propanamide]	89	100	95	100	90	100	91	70	86	2.78	83	95	94	98
